CN(C)CCCCOc1ccc(N(C)S(=O)(=O)c2ccc(C(F)(F)F)cc2)cc1 [Example 14.1, N-[4-(4-Dimethylamino-butoxy)-phenyl]-N-methyl-4-trifluoromethyl-benzenesulfonamide]
melting point: 151 to 153 °C
